For 14 molecules, AC50 results are on record in ChEMBL document CHEMBL5291721, “A preclinical secondary pharmacology resource illuminates target-adverse drug reaction associations of marketed drugs” (Nat Commun, 2023).

Among the targets are Mu-type opioid receptor (Homo sapiens, UniProt P35372); D(3) dopamine receptor (Homo sapiens, UniProt P35462); Histamine H3 receptor (Homo sapiens, UniProt Q9Y5N1).
The target of test [1] is T1, Muscarinic acetylcholine receptor M2 (Homo sapiens, UniProt P08172).
T1 sequence (P08172 whole entry): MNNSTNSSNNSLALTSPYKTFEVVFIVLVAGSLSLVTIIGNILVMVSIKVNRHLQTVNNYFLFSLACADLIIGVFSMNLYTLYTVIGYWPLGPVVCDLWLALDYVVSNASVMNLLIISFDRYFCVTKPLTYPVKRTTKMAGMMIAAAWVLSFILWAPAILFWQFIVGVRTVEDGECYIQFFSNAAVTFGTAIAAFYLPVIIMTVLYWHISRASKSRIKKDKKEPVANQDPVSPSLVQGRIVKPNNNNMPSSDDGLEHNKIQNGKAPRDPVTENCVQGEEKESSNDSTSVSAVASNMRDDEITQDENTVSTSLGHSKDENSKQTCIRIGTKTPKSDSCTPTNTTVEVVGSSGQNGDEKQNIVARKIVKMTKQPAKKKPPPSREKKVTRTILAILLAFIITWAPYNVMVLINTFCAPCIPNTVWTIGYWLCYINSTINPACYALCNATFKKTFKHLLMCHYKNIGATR

The target of test [2] is 3',5'-cyclic-AMP phosphodiesterase 4A (Homo sapiens, UniProt P27815). The class given is functional.
Test [3] deals with T2, Alpha-2A adrenergic receptor (Homo sapiens, UniProt P08913).
T2 sequence (P08913 whole entry): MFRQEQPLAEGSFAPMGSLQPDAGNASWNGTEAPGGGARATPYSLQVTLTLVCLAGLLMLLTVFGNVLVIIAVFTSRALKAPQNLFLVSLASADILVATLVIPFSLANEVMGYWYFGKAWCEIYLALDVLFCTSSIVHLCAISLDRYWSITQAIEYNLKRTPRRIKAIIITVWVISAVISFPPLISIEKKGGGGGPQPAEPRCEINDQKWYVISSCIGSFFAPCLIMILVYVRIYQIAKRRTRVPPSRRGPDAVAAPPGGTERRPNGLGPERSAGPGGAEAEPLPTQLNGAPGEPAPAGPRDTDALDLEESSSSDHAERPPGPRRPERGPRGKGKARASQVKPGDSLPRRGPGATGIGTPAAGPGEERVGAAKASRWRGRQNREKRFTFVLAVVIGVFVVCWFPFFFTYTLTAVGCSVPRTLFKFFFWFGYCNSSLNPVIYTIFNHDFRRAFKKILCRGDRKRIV

The target of test [4] is Sodium-dependent serotonin transporter (Homo sapiens, UniProt P31645).
The target of test [5] is T3, Alpha-1A adrenergic receptor (Homo sapiens, UniProt P35348).
T3 sequence (P35348 whole entry): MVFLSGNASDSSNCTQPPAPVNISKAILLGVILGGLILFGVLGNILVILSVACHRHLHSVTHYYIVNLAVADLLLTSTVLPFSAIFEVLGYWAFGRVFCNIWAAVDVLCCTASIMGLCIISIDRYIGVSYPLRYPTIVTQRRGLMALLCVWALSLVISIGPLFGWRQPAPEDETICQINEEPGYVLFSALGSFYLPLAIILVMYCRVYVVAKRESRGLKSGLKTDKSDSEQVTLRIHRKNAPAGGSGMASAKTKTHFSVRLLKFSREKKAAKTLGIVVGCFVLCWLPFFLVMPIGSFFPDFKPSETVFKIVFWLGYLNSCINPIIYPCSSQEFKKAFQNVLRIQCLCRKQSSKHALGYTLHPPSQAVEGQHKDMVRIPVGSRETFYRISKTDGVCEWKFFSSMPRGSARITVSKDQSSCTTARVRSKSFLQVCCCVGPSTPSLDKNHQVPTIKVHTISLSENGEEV
The class given is functional, cell-based.

The target of test [6] is Voltage-gated inwardly rectifying potassium channel KCNH2 (Homo sapiens, UniProt Q12809). The class given is functional. As to conditions: read-out: AC50.
Test [7] concerns the target T3, Alpha-1A adrenergic receptor. It counts as functional, cell-based. This is another data set of the same source.
For a further test, the target named is T4, Estrogen receptor (Homo sapiens, UniProt P03372).
T4 sequence (P03372 whole entry): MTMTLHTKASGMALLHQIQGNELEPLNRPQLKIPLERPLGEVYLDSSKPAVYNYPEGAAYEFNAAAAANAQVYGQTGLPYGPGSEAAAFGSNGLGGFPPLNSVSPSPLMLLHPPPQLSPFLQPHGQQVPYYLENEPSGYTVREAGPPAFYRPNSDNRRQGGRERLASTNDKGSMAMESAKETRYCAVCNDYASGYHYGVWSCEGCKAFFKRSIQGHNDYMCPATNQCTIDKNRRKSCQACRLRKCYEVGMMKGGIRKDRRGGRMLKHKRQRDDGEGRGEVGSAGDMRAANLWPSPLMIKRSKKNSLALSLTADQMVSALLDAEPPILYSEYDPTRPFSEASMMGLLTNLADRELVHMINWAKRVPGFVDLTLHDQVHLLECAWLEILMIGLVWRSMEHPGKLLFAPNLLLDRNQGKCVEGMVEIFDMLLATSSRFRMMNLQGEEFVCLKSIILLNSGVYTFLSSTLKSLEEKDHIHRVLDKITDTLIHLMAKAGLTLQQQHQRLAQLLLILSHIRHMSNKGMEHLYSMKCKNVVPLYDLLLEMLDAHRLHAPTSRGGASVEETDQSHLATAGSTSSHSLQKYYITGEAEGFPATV
Further: assay procedure not described here.

Chain of Histamine H3 receptor (Q9Y5N1 whole entry): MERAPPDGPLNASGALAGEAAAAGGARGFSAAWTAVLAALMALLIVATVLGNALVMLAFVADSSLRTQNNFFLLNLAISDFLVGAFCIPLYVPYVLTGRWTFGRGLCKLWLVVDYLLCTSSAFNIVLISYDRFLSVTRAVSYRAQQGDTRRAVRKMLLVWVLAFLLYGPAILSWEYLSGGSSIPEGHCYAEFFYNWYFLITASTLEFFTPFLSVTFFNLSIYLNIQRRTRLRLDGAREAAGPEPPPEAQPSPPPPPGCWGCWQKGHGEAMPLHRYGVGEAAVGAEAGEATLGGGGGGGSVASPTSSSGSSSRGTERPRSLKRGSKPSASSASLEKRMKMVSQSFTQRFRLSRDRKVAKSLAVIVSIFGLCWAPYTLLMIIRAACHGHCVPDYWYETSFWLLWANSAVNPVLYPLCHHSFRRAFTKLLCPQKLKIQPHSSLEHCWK
Chain of Sodium-dependent serotonin transporter (P31645 whole entry): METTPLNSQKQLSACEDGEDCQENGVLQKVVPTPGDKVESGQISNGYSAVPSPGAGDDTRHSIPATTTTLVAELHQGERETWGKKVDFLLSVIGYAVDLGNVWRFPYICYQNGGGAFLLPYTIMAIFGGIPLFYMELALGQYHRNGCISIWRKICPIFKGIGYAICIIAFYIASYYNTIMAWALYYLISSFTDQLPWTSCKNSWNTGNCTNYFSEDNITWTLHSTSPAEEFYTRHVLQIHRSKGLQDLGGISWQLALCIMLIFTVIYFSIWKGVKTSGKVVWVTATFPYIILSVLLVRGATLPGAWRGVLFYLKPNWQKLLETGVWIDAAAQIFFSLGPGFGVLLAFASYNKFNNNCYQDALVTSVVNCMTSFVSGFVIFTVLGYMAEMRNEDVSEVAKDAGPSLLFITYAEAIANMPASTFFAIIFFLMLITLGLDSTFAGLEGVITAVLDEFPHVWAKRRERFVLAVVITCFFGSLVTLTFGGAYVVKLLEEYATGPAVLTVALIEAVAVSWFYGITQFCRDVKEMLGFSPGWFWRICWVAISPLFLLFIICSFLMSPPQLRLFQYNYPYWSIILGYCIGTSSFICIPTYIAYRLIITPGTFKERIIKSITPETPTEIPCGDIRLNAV
Chain of Mu-type opioid receptor (P35372 whole entry): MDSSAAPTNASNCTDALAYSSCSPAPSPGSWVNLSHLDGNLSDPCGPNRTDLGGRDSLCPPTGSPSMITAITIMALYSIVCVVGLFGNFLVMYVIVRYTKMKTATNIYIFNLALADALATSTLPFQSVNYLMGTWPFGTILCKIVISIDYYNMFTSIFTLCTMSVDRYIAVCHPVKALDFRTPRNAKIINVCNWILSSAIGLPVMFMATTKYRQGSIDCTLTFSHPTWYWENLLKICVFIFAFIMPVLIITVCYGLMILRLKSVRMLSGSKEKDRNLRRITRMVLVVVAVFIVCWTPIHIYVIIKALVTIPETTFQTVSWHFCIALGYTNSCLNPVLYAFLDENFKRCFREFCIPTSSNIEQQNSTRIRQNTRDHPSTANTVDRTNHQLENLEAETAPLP
Chain of D(3) dopamine receptor (P35462 whole entry): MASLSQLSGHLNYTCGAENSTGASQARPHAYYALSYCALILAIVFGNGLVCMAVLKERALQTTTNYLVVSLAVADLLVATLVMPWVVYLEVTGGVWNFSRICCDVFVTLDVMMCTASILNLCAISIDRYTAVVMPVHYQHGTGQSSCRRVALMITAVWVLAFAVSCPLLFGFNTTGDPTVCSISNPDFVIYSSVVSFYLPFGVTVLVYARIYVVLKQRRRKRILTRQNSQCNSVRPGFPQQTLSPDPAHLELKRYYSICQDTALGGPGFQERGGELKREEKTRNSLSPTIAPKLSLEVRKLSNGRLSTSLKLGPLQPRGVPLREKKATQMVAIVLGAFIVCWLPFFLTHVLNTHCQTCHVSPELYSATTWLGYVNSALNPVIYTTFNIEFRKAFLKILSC
Chain of Voltage-gated inwardly rectifying potassium channel KCNH2 (Q12809 whole entry): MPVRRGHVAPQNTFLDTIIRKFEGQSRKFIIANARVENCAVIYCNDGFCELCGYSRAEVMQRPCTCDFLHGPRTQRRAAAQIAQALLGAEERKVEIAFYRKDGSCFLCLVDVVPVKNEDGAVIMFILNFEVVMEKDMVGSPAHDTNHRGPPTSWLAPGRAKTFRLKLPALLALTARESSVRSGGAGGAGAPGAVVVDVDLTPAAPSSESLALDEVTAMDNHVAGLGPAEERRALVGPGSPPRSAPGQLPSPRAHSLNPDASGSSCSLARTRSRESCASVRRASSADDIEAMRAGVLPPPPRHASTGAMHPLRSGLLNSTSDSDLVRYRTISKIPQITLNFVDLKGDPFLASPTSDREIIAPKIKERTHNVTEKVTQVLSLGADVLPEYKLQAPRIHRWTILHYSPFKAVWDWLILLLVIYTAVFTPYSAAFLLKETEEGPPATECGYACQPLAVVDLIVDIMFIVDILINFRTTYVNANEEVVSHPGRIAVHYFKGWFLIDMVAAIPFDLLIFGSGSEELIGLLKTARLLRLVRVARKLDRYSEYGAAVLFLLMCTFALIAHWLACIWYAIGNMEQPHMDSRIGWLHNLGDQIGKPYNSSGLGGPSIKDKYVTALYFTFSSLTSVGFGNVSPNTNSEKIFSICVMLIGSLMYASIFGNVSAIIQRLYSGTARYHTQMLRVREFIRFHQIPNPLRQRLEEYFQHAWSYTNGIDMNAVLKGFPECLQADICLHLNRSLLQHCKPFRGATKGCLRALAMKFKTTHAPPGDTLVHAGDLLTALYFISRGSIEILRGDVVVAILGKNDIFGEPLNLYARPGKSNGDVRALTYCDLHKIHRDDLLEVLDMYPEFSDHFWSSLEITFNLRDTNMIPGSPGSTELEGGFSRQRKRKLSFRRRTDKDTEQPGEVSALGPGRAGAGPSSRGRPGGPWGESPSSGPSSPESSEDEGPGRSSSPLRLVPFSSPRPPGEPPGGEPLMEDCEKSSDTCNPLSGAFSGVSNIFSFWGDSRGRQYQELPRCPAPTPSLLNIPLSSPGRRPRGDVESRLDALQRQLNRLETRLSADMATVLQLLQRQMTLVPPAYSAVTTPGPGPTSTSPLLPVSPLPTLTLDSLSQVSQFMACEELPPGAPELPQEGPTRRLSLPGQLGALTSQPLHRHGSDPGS
Chain of 3',5'-cyclic-AMP phosphodiesterase 4A (P27815 whole entry): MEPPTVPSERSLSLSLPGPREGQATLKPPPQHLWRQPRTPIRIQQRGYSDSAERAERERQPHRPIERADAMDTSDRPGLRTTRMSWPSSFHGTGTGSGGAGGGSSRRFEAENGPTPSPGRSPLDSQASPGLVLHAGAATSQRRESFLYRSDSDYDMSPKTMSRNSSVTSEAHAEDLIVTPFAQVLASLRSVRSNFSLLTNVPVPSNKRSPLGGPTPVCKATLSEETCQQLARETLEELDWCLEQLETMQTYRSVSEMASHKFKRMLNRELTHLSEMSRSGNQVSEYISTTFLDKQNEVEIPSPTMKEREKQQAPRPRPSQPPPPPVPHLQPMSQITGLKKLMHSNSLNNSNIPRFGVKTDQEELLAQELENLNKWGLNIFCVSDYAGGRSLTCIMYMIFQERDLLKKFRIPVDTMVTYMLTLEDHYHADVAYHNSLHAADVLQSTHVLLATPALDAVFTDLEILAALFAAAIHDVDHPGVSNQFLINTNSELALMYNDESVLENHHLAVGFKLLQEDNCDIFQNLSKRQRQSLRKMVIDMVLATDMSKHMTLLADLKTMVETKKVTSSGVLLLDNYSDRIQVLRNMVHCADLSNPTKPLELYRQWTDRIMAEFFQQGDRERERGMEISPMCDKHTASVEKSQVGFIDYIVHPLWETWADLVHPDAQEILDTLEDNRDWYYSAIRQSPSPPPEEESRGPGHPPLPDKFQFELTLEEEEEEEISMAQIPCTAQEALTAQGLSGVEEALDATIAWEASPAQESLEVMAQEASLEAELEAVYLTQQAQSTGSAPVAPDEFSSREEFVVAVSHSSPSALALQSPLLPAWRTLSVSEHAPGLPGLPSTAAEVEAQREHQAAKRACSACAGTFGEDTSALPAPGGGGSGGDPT

Turning to `CC(=O)Nc1ccc(/C=N/NC(N)=S)cc1` [AMITHIOZONE], the AC50 (in test [1]; in test [2]; at Mu-type opioid receptor; on D(3) dopamine receptor; at Histamine H3 receptor; in test [3]) was greater than 30 µM in each case. The AC50 in test [4] is greater than 30 µM.
Turning to `O=c1[nH]c(=O)n([C@H]2C[C@H](O)[C@@H](CO)O2)cc1/C=C/Br` [BRIVUDINE], the AC50 (in test [1]; in test [2]; in test [5]; on Mu-type opioid receptor; in test [6]; in [7]) was greater than 30 µM throughout. Also, the AC50 (at D(3) dopamine receptor; at Histamine H3 receptor; in test [3]; in test [4]) was greater than 30 µM each time.
Regarding `Nc1ccn(C[C@@H](CO)OCP(=O)(O)O)c(=O)n1` [CIDOFOVIR], the AC50 (in test [1]; in [2]; in test [5]; at Mu-type opioid receptor; in test [6]; in test [7]) was greater than 30 µM throughout. Besides, the AC50 (at D(3) dopamine receptor; at Histamine H3 receptor; in test [3]; in test [4]) was greater than 30 µM each time.
On to `CCn1c(=O)c2c(nc(/C=C/c3ccc(OC)c(OC)c3)n2C)n(CC)c1=O` [ISTRADEFYLLINE], for which the half-maximal activity concentration (AC50) in [1] is greater than 30 µM; in [2], 2.77 µM; in test [5], greater than 30 µM; on Mu-type opioid receptor it was greater than 30 µM; in test [6], greater than 30 µM; in [7] it was greater than 30 µM. Besides, the figures for the AC50 (at Histamine H3 receptor; in test [3]; in test [4]) were greater than 30 µM, greater than 10 µM and greater than 30 µM, respectively.
Take `Oc1ccc(OCc2ccccc2)cc1` [MONOBENZONE]: the half-maximal activity concentration (AC50) (in test [1]; in test [2]; in test [5]; at Estrogen receptor; at Mu-type opioid receptor; in test [6]) was greater than 30 µM in each case. The AC50 (in [7]; at D(3) dopamine receptor; on Histamine H3 receptor; in test [3]) was greater than 30 µM each time.
With `C[C@@H]1O[C@@H](O[C@H]2C[C@@H](O)[C@]3(CO)[C@H]4[C@H](O)C[C@]5(C)[C@@H](C6=CC(=O)OC6)CC[C@]5(O)[C@@H]4CC[C@]3(O)C2)[C@H](O)[C@H](O)[C@H]1O` [OUABAIN], the AC50 (in [1]; in test [2]; in test [5]; on Estrogen receptor; on Mu-type opioid receptor; in [6]) was greater than 30 µM in each case. Further, the AC50 (in test [7]; on D(3) dopamine receptor; on Histamine H3 receptor; in [3]) was greater than 30 µM in each case.
Consider `CO[C@H]1/C=C/O[C@@]2(C)Oc3c(C)c(O)c4c(c3C2=O)C2=NC3(CCN(CC(C)C)CC3)NC2=C(NC(=O)/C(C)=C\C=C\[C@H](C)[C@H](O)[C@@H](C)[C@@H](O)[C@@H](C)[C@H](OC(C)=O)[C@@H]1C)C4=O` [RIFABUTIN], for which the AC50 (in test [1]; in test [2]; in test [5]; on Estrogen receptor; on Mu-type opioid receptor; in test [6]) was greater than 30 µM in each case. Besides, the AC50 (in test [7]; at D(3) dopamine receptor; at Histamine H3 receptor; in test [3]) was greater than 30 µM in each case.
Consider `C[C@@H]1CN(c2c(F)c(N)c3c(=O)c(C(=O)O)cn(C4CC4)c3c2F)C[C@H](C)N1` [SPARFLOXACIN], for which the AC50 in test [1] was greater than 30 µM; in test [2], greater than 30 µM; in test [5], greater than 30 µM; at Estrogen receptor it was greater than 30 µM; on Mu-type opioid receptor, greater than 30 µM; in [6], 6.8 µM. Further, the concentration at half-maximal activity (AC50) (in test [7]; on D(3) dopamine receptor; on Histamine H3 receptor; in [3]) was greater than 30 µM throughout.
With `COc1ncnc(NS(=O)(=O)c2ccc(N)cc2)c1OC` [SULFADOXINE], the AC50 in test [1] is greater than 30 µM; in test [2], greater than 30 µM; in test [5] it was greater than 30 µM; at Estrogen receptor it was 22.7 µM; on Mu-type opioid receptor, greater than 30 µM; in [6], greater than 30 µM. For the same molecule, the AC50 (in test [7]; on D(3) dopamine receptor; on Histamine H3 receptor; in test [3]) was greater than 30 µM throughout.
Turning to `CC1(C)CCC(C)(C)c2cc(NC(=O)c3ccc(C(=O)O)cc3)ccc21` [TAMIBAROTENE], the AC50 in test [1] was greater than 30 µM; in test [2], greater than 30 µM; in [5], greater than 10 µM; on Mu-type opioid receptor, greater than 30 µM; in test [7], greater than 30 µM; on D(3) dopamine receptor, greater than 30 µM. The AC50 (at Histamine H3 receptor; in [3]; in [4]) was greater than 30 µM each time.
Regarding `CC(C)N1CCN(c2ccc(OCC3COC(Cn4cncn4)(c4ccc(Cl)cc4Cl)O3)cc2)CC1` (stereo not given) [TERCONAZOLE], the AC50 was 10.9 µM in test [1]; greater than 30 µM in [2]; 16 µM in test [5]; greater than 30 µM on Estrogen receptor; greater than 30 µM at Mu-type opioid receptor; 6.9 µM in [6]. In addition, the AC50 in test [7] was greater than 30 µM; at D(3) dopamine receptor, 7.12 µM; at Histamine H3 receptor it was 0.096 µM; in test [3], 2 µM.
For the molecule `Cc1ccc(O)c([C@H](CCN(C(C)C)C(C)C)c2ccccc2)c1` [TOLTERODINE], the AC50 in test [5] was 24.7 µM; on Mu-type opioid receptor, greater than 30 µM; in [7], greater than 30 µM; at D(3) dopamine receptor, greater than 30 µM; on Histamine H3 receptor, greater than 30 µM; in test [3] it was greater than 30 µM. This molecule registered an AC50 in [4] of 20.3 µM.
Take `CCOC1O[C@H]([C@@H](COCc2ccccc2)OCc2ccccc2)[C@H](OCc2ccccc2)[C@H]1O` (stereo not given in full) [TRIBENOSIDE]: the concentration at half-maximal activity (AC50) in test [1] was greater than 30 µM; in [2], greater than 30 µM; in test [5] it was 15.2 µM; at Mu-type opioid receptor, greater than 30 µM; in [6], greater than 30 µM; in test [7], greater than 30 µM. Moreover, the AC50 (on Histamine H3 receptor; in test [3]; in test [4]) was greater than 30 µM each time.
`N[C@@H](Cc1ccc(O)cc1)C(=O)O` [TYROSINE]: the AC50 (in test [1]; in test [2]; in [5]; on Mu-type opioid receptor; in test [7]; at D(3) dopamine receptor) was greater than 30 µM throughout. Besides, the AC50 (on Histamine H3 receptor; in [3]; in [4]) was greater than 30 µM each time.

The term AC50 denotes the concentration giving half of the maximal activity seen.
